The record followed here is US10179782B2, “Substituted sulfonamide compounds” (Genentech, Inc., priority 2016, dated 2019).

The experiment deals with T1, human TRPA1 (Homo sapiens, UniProt O75762).
T1 construct: expressed in transfected cells; host or cells: CHO cells
T1 sequence (O75762 whole entry): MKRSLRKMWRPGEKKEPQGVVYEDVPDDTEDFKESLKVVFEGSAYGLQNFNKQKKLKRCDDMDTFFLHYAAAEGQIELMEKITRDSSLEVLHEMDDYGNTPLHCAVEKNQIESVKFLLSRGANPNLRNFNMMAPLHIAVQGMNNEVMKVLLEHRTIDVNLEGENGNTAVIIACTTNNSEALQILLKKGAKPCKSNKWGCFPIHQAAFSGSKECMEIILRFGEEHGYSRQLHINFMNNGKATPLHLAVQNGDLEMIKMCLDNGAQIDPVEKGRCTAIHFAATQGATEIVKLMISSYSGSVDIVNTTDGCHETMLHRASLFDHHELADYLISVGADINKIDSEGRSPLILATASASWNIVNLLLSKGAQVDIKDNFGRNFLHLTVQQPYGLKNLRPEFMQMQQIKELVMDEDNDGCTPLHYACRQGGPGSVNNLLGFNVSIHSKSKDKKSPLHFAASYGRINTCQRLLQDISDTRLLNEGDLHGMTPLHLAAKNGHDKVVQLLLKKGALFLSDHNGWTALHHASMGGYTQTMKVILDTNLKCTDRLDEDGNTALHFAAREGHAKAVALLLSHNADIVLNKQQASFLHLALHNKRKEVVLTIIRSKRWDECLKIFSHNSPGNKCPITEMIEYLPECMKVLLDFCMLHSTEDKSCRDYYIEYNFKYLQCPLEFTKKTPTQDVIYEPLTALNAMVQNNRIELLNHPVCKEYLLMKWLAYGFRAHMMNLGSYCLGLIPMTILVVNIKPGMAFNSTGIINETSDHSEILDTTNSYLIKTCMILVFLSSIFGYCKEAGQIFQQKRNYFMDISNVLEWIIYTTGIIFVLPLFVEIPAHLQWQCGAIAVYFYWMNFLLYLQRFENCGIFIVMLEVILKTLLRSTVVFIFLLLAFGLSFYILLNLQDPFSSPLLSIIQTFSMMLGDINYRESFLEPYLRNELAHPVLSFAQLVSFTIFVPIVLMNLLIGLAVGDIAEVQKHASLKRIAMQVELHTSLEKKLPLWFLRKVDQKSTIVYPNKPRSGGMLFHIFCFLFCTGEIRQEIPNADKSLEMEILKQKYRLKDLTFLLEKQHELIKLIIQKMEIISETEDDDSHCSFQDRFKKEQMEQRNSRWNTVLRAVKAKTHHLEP
In words: TRPA1 FLIPR Tetra calcium influx assay in CHO cells (block of cinnamaldehyde-induced calcium influx). The format is cell-based. The following applies: Table 2; CHO cells expressing TRPA1; agonist cinnamaldehyde 75 uM; 20 min compound incubation; Hill coefficient fixed to 1.5; read-out: hTRPA1 CHO Ca2+ AUC EVO (IC50). The gist of the method:
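IC50s were derived from a Hill fit with n fixed at 1.5, using inhibition of FLIPR Tetra calcium signals in dye-loaded TRPA1-CHO cells. Cells sat with compound 20 min at room temperature in HBSS with 20 mM HEPES (pH 7.4) and 0.02% BSA, then were challenged with cinnamaldehyde near EC80: 75 µM human, 45 µM rat.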
On to `C[C@H]1[C@H](F)C[C@@H](C(=O)NCc2cc(-c3cnc(C(F)(F)F)cn3)ncc2C(F)(F)F)N1S(=O)(=O)c1ccc(F)cc1` [Example 112, (2S,4R,5 S)-4-fluoro-1-(4-fluorophenylsulfonyl)-5-methyl-N-((5-(trifluoromethyl)-2-(5-(trifluoromethyl)pyrazin-2-yl)pyridin-4-yl)methyl)pyrrolidine-2-carboxamide], for which the IC50 (as a rule, the point on the concentration scale where inhibition reaches its midpoint) was 1.94 nM.

As for `C[C@H]1[C@H](F)C[C@@H](C(=O)NCc2cc(-c3cnc(C(F)(F)F)nc3)nc(C(F)(F)F)c2)N1S(=O)(=O)c1ccc(F)cc1` [Example 113, (2S,4R,5S)-4-fluoro-1-(4-fluorophenyl)sulfonyl-5-methyl-N-[[2-(trifluoromethyl)-6-[2-(trifluoromethyl)pyrimidin-5-yl]-4-pyridyl]methyl]pyrrolidine-2-carboxamide], the 50% inhibitory concentration (IC50) is 4.47 nM.

`C[C@H]1[C@H](F)C[C@@H](C(=O)NCc2cc(-c3ccc(OC(F)F)nc3)ncc2C(F)(F)F)N1S(=O)(=O)c1ccc(F)cc1` [Example 114, (2S,4R,5S)—N-([2-[6-(difluoromethoxy)pyridin-3-yl]-5-(trifluoromethyl)pyridin-4-yl]methyl)-4-fluoro-1-[(4-fluorobenzene)sulfonyl]-5-methylpyrrolidine-2-carboxamide]: the IC50 was 3.57 nM.

Consider `C[C@H]1[C@H](F)C[C@@H](C(=O)NCc2cc(-c3ccc(C(F)(F)F)nc3)ncc2C(F)(F)F)N1S(=O)(=O)c1ccc(F)cc1` [Example 115, (2S,4R,5S)-4-fluoro-1-(4-fluorophenyl)sulfonyl-5-methyl-N-[[5-(trifluoromethyl)-2-[6-(trifluoromethyl)-3-pyridyl]-4-pyridyl]methyl]pyrrolidine-2-carboxamide], for which the IC50 is 1.34 nM.

With `C[C@H]1[C@H](F)C[C@@H](C(=O)NCc2cc(-c3cnc(C(F)(F)F)nc3)ncc2C(F)(F)F)N1S(=O)(=O)c1ccc(C#N)cc1` [Example 116, (2S,4R,5S)-1-(4-cyanophenyl)sulfonyl-4-fluoro-5-methyl-N-[[5-(trifluoromethyl)-2-[2-(trifluoromethyl)pyrimidin-5-yl]-4-pyridyl]methyl]pyrrolidine-2-carboxamide], the IC50 amounted to 5.75 nM.

Consider `COc1nn(-c2cnc(C(F)(F)F)nc2)cc1CNC(=O)[C@@H]1C[C@@H](F)[C@H](C)N1S(=O)(=O)c1cc2cc(F)ccc2o1` [Example 117, (2S,4R,5S)-4-fluoro-1-(5-fluorobenzofuran-2-yl)sulfonyl-N-[[3-methoxy-1-[2-(trifluoromethyl)pyrimidin-5-yl]pyrazol-4-yl]methyl]-5-methyl-pyrrolidine-carboxamide], for which the IC50 came out at 1.09 nM.

In the case of `C[C@H]1[C@H](F)C[C@@H](C(=O)NCc2cc(-c3cnc(C(F)(F)F)nc3)c(F)cn2)N1S(=O)(=O)c1ccc(F)c(F)c1` [Example 118, (2S,4R,5S)-1-(3,4-difluorophenyl)sulfonyl-4-fluoro-N-[[5-fluoro-4-[2-(trifluoromethyl)pyrimidin-5-yl]-2-pyridyl]methyl]-5-methyl-pyrrolidine-2-carboxamide], the IC50 came out at 2.29 nM.

With `C[C@H]1[C@H](F)C[C@@H](C(=O)NCc2cc(-c3cnc(C(F)(F)F)nc3)ncc2C(F)(F)F)N1S(=O)(=O)c1ccc(F)c(F)c1` [Example 119, (2S,4R,5S)-1-(3,4-difluorophenyl)sulfonyl-4-fluoro-5-methyl-N-[[5-(trifluoromethyl)-2-[2-(trifluoromethyl)pyrimidin-5-yl]-4-pyridyl]methyl]pyrrolidine-2-carboxamide], the IC50 turned out to be 0.836 nM.

Take `C[C@H]1[C@H](F)C[C@@H](C(=O)NCc2cc(C(F)(F)F)nc(C3CC3)n2)N1S(=O)(=O)c1cc2cc(F)ccc2o1` [Example 120, (2S,4R,5S)-N-[[2-cyclopropyl-6-(trifluoromethyl)pyrimidin-4-yl]methyl]-4-fluoro-1-(5-fluorobenzofuran-2-yl)sulfonyl-5-methyl-pyrrolidine-2-carboxamide]: the IC50 amounted to 1.52 nM.

As for `C[C@H]1[C@H](F)C[C@@H](C(=O)NCc2cc(-c3cnc(C(F)(F)F)nc3)nc(C3CC3)c2)N1S(=O)(=O)c1ccc(F)cc1` [Example 121, (2S,4R,5S) N-[[2-cyclopropyl-6-[2-(trifluoromethyl)pyrimidin-5-yl]-4-pyridyl]methyl]-4-fluoro-1-(4-fluorophenyl)sulfonyl-5-methyl-pyrrolidine-2-carboxamide], the IC50 was found to be 1.45 nM.

For the compound `C[C@H]1[C@H](F)C[C@@H](C(=O)NCc2cc(-c3cnc(C(F)(F)F)nc3)ncc2OCC(F)(F)F)N1S(=O)(=O)c1ccc(F)cc1` [Example 122, (2S,4R,5S)-4-fluoro-1-(4-fluorophenylsulfonyl)-5-methyl-N-((5-(2,2,2-trifluoroethoxy)-2-(2-(trifluoromethyl)pyrimidin-5-yl)pyridin-4-yl)methyl)pyrrolidine-2-carboxamide], the IC50 stood at 5.51 nM.

As to `C[C@H]1[C@H](F)C[C@@H](C(=O)NCc2cc(C(F)(F)F)nc(C3CC3)c2F)N1S(=O)(=O)c1ccc(F)cc1` [Example 123, (2S,4R,5S)-N-[[2-cyclopropyl-3-fluoro-6-(trifluoromethyl)-4-pyridyl]methyl]-4-fluoro-1-(4-fluorophenyl)sulfonyl-5-methyl-pyrrolidine-2-carboxamide], the IC50 was 10.8 nM.

On to `C[C@H]1[C@H](F)C[C@@H](C(=O)NCc2cc(-c3cnc(C(F)(F)F)nc3)nc(OCC(F)(F)F)n2)N1S(=O)(=O)c1ccc(F)cc1` [Example 124, (2S,4R,5S)-4-fluoro-1-(4-fluorophenyl)sulfonyl-5-methyl-N-[[2-(2,2,2-trifluoroethoxy)-6-[2-(trifluoromethyl)pyrimidin-5-yl]pyrimidin-4-yl]methyl]pyrrolidine-2-carboxamide], for which the IC50 is 2.3 nM.

On to `C[C@H]1[C@H](F)C[C@@H](C(=O)NCc2cc(-c3cnc(C(F)(F)F)nc3)ncc2C2CC2)N1S(=O)(=O)c1ccc(F)cc1` [Example 125, (2S,4R,5S)-N-[[5-cyclopropyl-2-[2-(trifluoromethyl)pyrimidin-5-yl]-4-pyridyl]methyl]-4-fluoro-1-(4-fluorophenyl)sulfonyl-5-methyl-pyrrolidine-2-carboxamide], for which the IC50 was found to be 4.9 nM.

Consider `COc1nc(CNC(=O)[C@@H]2C[C@@H](F)[C@H](C)N2S(=O)(=O)c2ccc(F)cc2)cc(-c2cnc(C(F)(F)F)nc2)n1` [Example 126, (2S,4R,5S)-4-fluoro-1-(4-fluorophenyl)sulfonyl-N-[[2-methoxy-6-[2-(trifluoromethyl)pyrimidin-5-yl]pyrimidin-4-yl]methyl]-5-methyl-pyrrolidine-2-carboxamide], for which the IC50 came out at 12.8 nM.

As for `C[C@H]1[C@H](F)C[C@@H](C(=O)NCc2cc([C@H]3C[C@@H](OC(F)(F)F)C3)ncc2F)N1S(=O)(=O)c1ccc(F)cc1` [Example 127, (2S,4R,5S)-4-fluoro-1-(4-fluorophenyl)sulfonyl-N-[[5-fluoro-2-[3-(trifluoromethoxy)cyclobutyl]-4-pyridyl]methyl]-5-methyl-pyrrolidine-2-carboxamide], the IC50 was determined as 4.27 nM.

As to `C[C@H]1[C@H](F)C[C@@H](C(=O)NCc2cc(-c3cc(C(F)(F)F)nn3C)ncc2F)N1S(=O)(=O)c1ccc(F)cc1` [Example 128, (2S,4R,5S)-4-fluoro-N-[[5-fluoro-2-[2-methyl-5-(trifluoromethyl)pyrazol-3-yl]-4-pyridyl]methyl]-1-(4-fluorophenyl)sulfonyl-5-methyl-pyrrolidine-2-carboxamide], the IC50 worked out at 18.2 nM.

As for `C[C@H]1[C@H](F)C[C@@H](C(=O)NCc2cc(-c3cnc(C(F)(F)F)s3)ncc2C#N)N1S(=O)(=O)c1ccc(F)cc1` [Example 129, (2S,4R,5S)—N-((5-cyano-2-(2-(trifluoromethyl)thiazol-5-yl)pyridin-4-yl)methyl)-4-fluoro-1-((4-fluorophenyl)sulfonyl)-5-methylpyrrolidine-2-carboxamide], the IC50 turned out to be 4.14 nM.

As for `C[C@H]1[C@H](F)C[C@@H](C(=O)NCc2cc(-c3cnc(C(F)(F)F)nc3)cc(C3CC3)n2)N1S(=O)(=O)c1ccc(F)cc1` [Example 130, (2S,4R,5S)-N-[[6-cyclopropyl-4-[2-(trifluoromethyl)pyrimidin-5-yl]-2-pyridyl]methyl]-4-fluoro-1-(4-fluorophenyl)sulfonyl-5-methyl-pyrrolidine-2-carboxamide], the half-inhibitory concentration (IC50) stood at 3.82 nM.

`C[C@H]1[C@H](F)C[C@@H](C(=O)NCc2cc(-c3cnc(C(F)(F)F)nc3)c(F)c(C3CC3)n2)N1S(=O)(=O)c1ccc(F)cc1` [Example 131, (2S,4R,5S)-N-[[6-cyclopropyl-5-fluoro-4-[2-(trifluoromethyl)pyrimidin-5-yl]-2-pyridyl]methyl]-4-fluoro-1-(4-fluorophenyl)sulfonyl-5-methyl-pyrrolidine-2-carboxamide]: the IC50 was 4.04 nM.

On to `C[C@H]1[C@H](F)C[C@@H](C(=O)NCc2cc(OC[C@@H]3C[C@H]3C(F)(F)F)nc(C3CC3)n2)N1S(=O)(=O)c1ccc(F)cc1` [Example 132, (2S,4R,5S)-N-[[2-cyclopropyl-6-[[(1R,2R)-2-(trifluoromethyl)cyclopropyl]methoxy]pyrimidin-4-yl]methyl]-4-fluoro-1-(4-fluorophenyl)sulfonyl-5-methyl-pyrrolidine-2-carboxamide], for which the IC50 worked out at 15.2 nM.

As to `C[C@H]1[C@H](F)C[C@@H](C(=O)NCc2cc(-c3cnc(C(F)(F)F)nc3)c(C(F)F)cn2)N1S(=O)(=O)c1ccc(F)cc1` [Example 133, (2S,4R,5S)-N-[[5-(difluoromethyl)-4-[2-(trifluoromethyl)pyrimidin-5-yl]-2-pyridyl]methyl]-4-fluoro-1-(4-fluorophenyl)sulfonyl-5-methyl-pyrrolidine-2-carboxamide], the IC50 was determined as 30.5 nM.
